In patent US12419976B2, “Hybrid tracers for targeted cancer imaging and treatment” (ACADEMISCH ZIEKENHUIS LEIDEN (H.O.D.N. LUMC), priority 2018, dated 2025):
Values joined by “and” are separate entries in the source; they are usually repeats but may differ in a detail not shown here. Identical values can stand only once. Where a SMILES comes first, the peptide text is derived from it. [ ]: non-standard residue; d: D form. The star is where a group is joined. X1 = O=C(O)CC[C@H](NC(=O)N[C@@H](CCCCNC(=O)CCCCCCC(=O)*)C(=O)O)C(=O)O; d2Nal = N[C@H](Cc1ccc2ccccc2c1)C(=O)O; Mercaptoacetyl = O=C(CS)*

Tests used:
[1] = Photophysical properties of Cy5 dyes and hybrid tracers in PBS; type: physicochemical; conditions: for Brightness: determined using the ε of the hybrid tracer's corresponding fluorophore
Protocol: The brightness of a dye—one of the most important photophysical characteristics in a clinical setting—is the product of its molar extinction coefficient (e) and quantum yield (ϕF). We therefore set out to determine the e of each fluorophore by creating a linear concentration range (7.5-0.25 μM) in PBS and measuring the corresponding absorbance (Table 1). The addition of a sulfonate on the carboxylic-acid-containing indoline moiety diminishes the epsilon and the use of extra aryl moieties on the cyanine backbone greatly diminishes the dyes' solvability and thus their epsilon is greatly diminished as well.
The ϕF of a fluorophore is the relation between the number of photons emitted divided by the number of photons absorbed by a single molecule. It is therefore also called the emission efficiency. […] Perhaps an asymmetrical cyanine core, with its significant electron density imbalance, is an inefficient fluorophore. In line with our expectations-since the benzo[e]indole caused J-aggregate formation, the ϕF of benzo[e]indole-containing fluorophores were diminished. […] The only trend derived from the abovementioned data is that the free fluorophore benefits (when optimising emission efficiency) from symmetrical substituents on the cyanine structure.
As the brightness of a fluorophore (or hybrid tracer) is one of its most important photophysical traits, we calculated the brightness for all fluorophores. In order to give insight in the hybrid tracer's optical performance, the brightness was determined by using the ε of its corresponding fluorophore in PBS. […] EuK(SO3)-Cy5-MAS3 thus contains the most favourable photophysical characteristics out of these 6 exemplary hybrid tracers.

[2] = Lipophilicity logP(o/w) of 99mTc-labeled hybrid tracers; type: physicochemical; conditions: octanol/water, n = 6
[3] = target: serum albumin (Homo sapiens, UniProt P02768); assay: Plasma protein binding (serum binding); type: in vitro ADME; conditions: for Plasma protein binding (PPB): FIG. 2A; for fraction unbound: serum albumin, n = 3 (Table 3)
Description: FIG. 2 illustrates the results for plasma protein interaction assays for exemplary hybrid tracer compounds. A) Plasma protein binding as a percentage of the indicated hybrid tracers bound to serum albumin. All hybrid tracers portray significant differences (p<0.05) except when noted (ns).
Serum binding, or rather plasma protein binding (PPB) is a useful pharmacokinetic characteristic for the initial assessment of tracer candidates prior to in vivo use as PPB is directly related to, e.g., blood retention and clearance rates. All hybrid tracers have PPB with values between 52-89% with an average of 76±12% (FIG. 2A). The benzo[e]indole-containing hybrid tracers (EuK(Ar)-Cy5-MAS3, EuK-Cy5-(Ar)MAS3 and EuK(Ar)Cy5-(Ar)MAS3) tend to have the highest PPB. […] This can be explained by Sudlow's site, a binding pocket in albumin's subdomain IIA, which binds bulky heterocyclic anions. No clear correlation could be found between c log D and serum binding. Even though PPB has a relation to the lipophilicity, it was expected that we could not predict the PPB based on the c log D as the PPB cannot be explained by a single physiochemical characteristic.

[4] = Stability in serum at 37° C., absorbance and fluorescence after 24 h; type: in vitro ADME; conditions: for Serum stability after 24 h, remaining absorbance / Serum stability after 24 h, remaining fluorescence: n = 2
Protocol: Not only serum binding, but also the stability in serum is valuable. This characteristic is another brick in the wall for the preclinical evaluation of hybrid tracers since this indicates a compound's in vivo stability. Clearly, any compound degrading in an in vivo environment is not suited for clinical use. All hybrid tracers were incubated in serum at 37° C. and their absorbance and fluorescence were measured after 24 h.

[5] = target: T1, PSMA (Homo sapiens, UniProt Q04609); assay: Competitive binding assay, LNCaP cells, EuK[125I]I-BA radioligand; conditions: for IC50: human LNCaP cells, EuK[125I]I-BA competitive radioligand, n ≥ 3, read-out: IC50 (PSMA affinity)
T1 construct: endogenous in cells; host or cells: LNCaP cells
Protocol: (§1) Fluoresence confocal microscopy was utilised as a tool for receptor localisation. As depicted in FIG. 3, a typical PSMA-targeting tracer brightly stains the extracellular receptor. IC50 was determined in a competitive binding assay using human LNCaP cells and EuK[^125I]I-BA as competitive radioligand.

[6] = target: T1, PSMA; assay: Fluorescence confocal microscopy of LNCaP cells; type: cell-based; conditions: FIG. 3
Protocol: A) provides a brightfield image of incubated cells. B) provides an overlay of confocal images of incubated cells with Cy5-related signal of the PSMA-targeting tracer in red, the nucleus in blue and lysosomes in the cytoplasm in green. C) provides an overlay of the confocal and brightfield images.
as §1

[7] = tested on: orthotopically transplanted PC346C cells; assay: In vivo SPECT imaging in tumour-bearing mice; conditions: tumour-bearing nude BALB/c mice, FIG. 4A
Protocol: (§2) A) In vivo SPECT imaging. Coronal SPECT imaging image of prostate tumour-bearing mice injected with either one of the PSMA hybrid tracer analogues. Organs are denoted as Lu (lungs), Li (liver), G (gallbladder), S (spleen), K (kidneys), B (bladder) and T (tumour). B) Comparison of biodistribution of the hybrid tracer matrix compared to the clinically approved tracer PSMA I&S, with C) providing the biodistribution of hybrid tracer EUK(SO3)—CY5-MAS3. Biodistribution pattern at 2 h post injection of the different hybrid tracers from the matrix compared to the reference tracer PSMA I&S depicted as percentage of the injected dose per gram tissue (% ID/g).
(§3) The in vivo characteristics were investigated in male BALB/c nude mice using orthotopically transplanted PC346C cells. These mice were analysed in various ways, i.e., in vivo nuclear imaging (SPECT) in tumour-bearing mice, in vivo optical imaging (fluorescence imaging) in tumour-bearing mice, ex vivo biodistribution (percentage injected dose per gram (% ID/g)) in healthy and tumour-bearing mice and ex vivo fluorescence imaging.

[8] = tested on: orthotopically transplanted PC346C cells; assay: Ex vivo biodistribution in tumour-bearing mice; conditions: for Hepatic clearance: FIG. 5C, in %ID/g; for Tumour-to-fat ratio (T/F): FIG. 5D
Protocol: as §2
FIG. 5 illustrates biodistribution parameters and tumour uptake for exemplary hybrid tracers. Overview of A) the % Injected activity found in all excised organs percentage of the injected activity that remained at 2 h post tracer injection (all ns), B) the amount of radioactivity still present in the blood pool and C) no significant differences in hepatic clearance between the compounds. To highlight the visibility of the tumour over background tissue notorious for occluding signal within the area of the prostate, the D) tumour-to-fat and E) the tumour-to-blood ratio are provided for the individual hybrid tracers. Significance portrayed as: nothing (non-significant) *(p≤0.05) **(p≤0.01) ***(p≤0.001).
as §3

T1 sequence (Q04609 whole entry): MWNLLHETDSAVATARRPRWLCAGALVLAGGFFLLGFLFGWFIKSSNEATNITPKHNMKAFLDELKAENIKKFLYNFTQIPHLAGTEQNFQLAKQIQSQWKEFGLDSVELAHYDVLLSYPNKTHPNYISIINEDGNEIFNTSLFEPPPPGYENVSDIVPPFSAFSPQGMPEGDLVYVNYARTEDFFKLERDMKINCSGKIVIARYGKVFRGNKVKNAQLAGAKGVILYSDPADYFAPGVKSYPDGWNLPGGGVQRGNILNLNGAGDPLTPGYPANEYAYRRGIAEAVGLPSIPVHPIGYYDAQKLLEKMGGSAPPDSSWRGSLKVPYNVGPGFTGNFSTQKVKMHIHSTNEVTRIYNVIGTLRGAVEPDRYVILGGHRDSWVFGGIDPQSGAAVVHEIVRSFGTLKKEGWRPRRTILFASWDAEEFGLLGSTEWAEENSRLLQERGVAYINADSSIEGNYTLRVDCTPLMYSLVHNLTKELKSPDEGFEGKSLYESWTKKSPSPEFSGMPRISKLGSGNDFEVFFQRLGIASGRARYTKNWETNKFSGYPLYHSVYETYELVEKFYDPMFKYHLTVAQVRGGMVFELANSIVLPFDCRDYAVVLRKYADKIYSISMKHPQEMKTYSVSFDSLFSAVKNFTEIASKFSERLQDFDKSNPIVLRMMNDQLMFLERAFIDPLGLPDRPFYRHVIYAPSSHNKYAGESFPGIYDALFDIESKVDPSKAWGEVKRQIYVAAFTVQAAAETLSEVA
Chain of serum albumin (P02768 25-609): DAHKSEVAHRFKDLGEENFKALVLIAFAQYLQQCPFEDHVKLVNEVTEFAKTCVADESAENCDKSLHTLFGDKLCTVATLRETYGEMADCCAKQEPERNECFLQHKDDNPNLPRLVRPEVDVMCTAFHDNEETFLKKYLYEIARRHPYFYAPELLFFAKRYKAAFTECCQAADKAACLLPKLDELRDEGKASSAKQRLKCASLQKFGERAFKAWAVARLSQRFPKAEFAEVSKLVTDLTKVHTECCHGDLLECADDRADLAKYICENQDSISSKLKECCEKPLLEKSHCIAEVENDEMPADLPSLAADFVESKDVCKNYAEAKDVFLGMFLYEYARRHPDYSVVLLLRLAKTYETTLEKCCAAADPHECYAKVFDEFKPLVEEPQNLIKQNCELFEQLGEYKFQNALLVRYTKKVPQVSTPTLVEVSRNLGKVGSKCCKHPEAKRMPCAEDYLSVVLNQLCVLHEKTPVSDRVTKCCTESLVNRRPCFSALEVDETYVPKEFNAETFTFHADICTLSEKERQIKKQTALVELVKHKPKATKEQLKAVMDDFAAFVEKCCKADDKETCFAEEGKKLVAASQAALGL

Stokes shift [1] | λem [1] | λex [1] | logP [2] | Plasma protein binding (PPB) [3] | fraction unbound [3] | Serum stability after 24 h, remaining absorbance [4] | Serum stability after 24 h, remaining fluorescence [4] | IC50 [5] | PSMA affinity relative to EuK-Cy5(SO3)-MAS3 ([5]; ratio of affinities) | Staining of LNCaP cells (confocal) [6] | Hepatic clearance [8] | Tumour-to-blood ratio (T/B) ([8]; FIG. 5E) | ΦF (quantum yield) [1] | Brightness [1] | Tumour-to-fat ratio (T/F) [8] | Serum stability (comparison between tracers) ([4]; p<0.05) | Blood retention ([8]; 2 h post injection, FIG. 5B) | SMILES | Nuclear (SPECT) imaging of the tumour [7] | Kidney accumulation ([8]; biodistribution 2 h post injection)
18 nm | 700 nm | 682 nm |  | highest PPB |  |  |  | 345 nM |  |  | 0.87±0.66 |  | 14% | 7^‡ 10^3 M^−1 · cm^−1 |  | significantly lower serum stability |  | CC(=O)SCC(=O)NC(CO)C(=O)NC(CO)C(=O)NC(CO)C(=O)NCCCCCC(=O)NCCCCN1C(=CC=CC=CC2=[N+](CCCCCC(=O)NCCCCC(NC(=O)NC(CCC(=O)O)C(=O)O)C(=O)O)c3ccc4ccccc4c3C2(C)C)C(C)(C)c2c1ccc1ccccc21 (stereo not shown) [EuK(Ar)-Cy5-(Ar)MAS3] | clear nuclear imaging of the tumour | 
17 nm | 680 nm | 663 nm | -1.84 ± 0.06 | highest PPB | 0.11 | 75 ± 0 % remaining | 76 ± 0 % remaining | 164 ± 76.9 nM |  |  |  |  | 9% | 5^‡ 10^3 M^−1 · cm^−1 |  |  |  | CC(=O)SCC(=O)NC(CO)C(=O)NC(CO)C(=O)NC(CO)C(=O)NCCCCCC(=O)NCCCCN1C(=CC=CC=CC2=[N+](CCCCCC(=O)NCCCCC(NC(=O)NC(CCC(=O)O)C(=O)O)C(=O)O)c3ccccc3C2(C)C)C(C)(C)c2c1ccc1ccccc21 (stereo not shown) [EuK-Cy5-(Ar)MAS3] |  | 
 |  |  |  |  |  |  |  |  |  |  |  |  |  |  |  |  |  | O=C(O)CC[C@H](NC(=O)N[C@@H](CCCCNC(=O)CCCCCCC(=O)NCCCC[C@@H](NC(=O)[C@@H](Cc1ccc2ccccc2c1)NC(=O)[C@@H](Cc1ccc(O)cc1)NC(=O)[C@@H](CO)NC(=O)[C@@H](CO)NC(=O)[C@@H](CO)NC(=O)CS)C(=O)O)C(=O)O)C(=O)O [PSMA I&S, reference compound] (Mercaptoacetyl-[dS][dS][dS][dY][d2Nal][dK](X1)-OH) |  | 186.0±23.0 ID/g
18 nm | 663 nm | 644 nm | -2.13 ± 0.1 |  | 0.117 | 80 ± 6 % remaining | 86 ± 5 % remaining | 175 ± 61.6 nM |  |  | 19.93±13.44 |  | 16% |  | 2542±287 |  |  | CC(=O)SCC(=O)NC(CO)C(=O)NC(CO)C(=O)NC(CO)C(=O)NCCCCCC(=O)NCCCCN1C(=CC=CC=CC2=[N+](CCCCCC(=O)NCCCCC(NC(=O)NC(CCC(=O)O)C(=O)O)C(=O)O)c3ccccc3C2(C)C)C(C)(C)c2ccccc21 (stereo not shown) [EuK-Cy5-MAS3] |  | 
18 nm | 682 nm | 664 nm | -1.75 ± 0.1 | highest PPB | 0.093 | 85 ± 3 % remaining | 79 ± 1 % remaining | 113 ± 35.9 nM |  |  | 0.94±0.13 and 1.10±0.14 |  | 9% | 3^‡ 10^3 M^−1 · cm^−1 |  |  | 6.91±1.08 ID/g | CC(=O)SCC(=O)NC(CO)C(=O)NC(CO)C(=O)NC(CO)C(=O)NCCCCCC(=O)NCCCCN1C(=CC=CC=CC2=[N+](CCCCCC(=O)NCCCCC(NC(=O)NC(CCC(=O)O)C(=O)O)C(=O)O)c3ccc4ccccc4c3C2(C)C)C(C)(C)c2ccccc21 (stereo not shown) [EuK(Ar)-Cy5-MAS3] |  | 

SMILES | Stokes shift [1] | λem [1] | λex [1] | logP [2] | Plasma protein binding (PPB) [3] | fraction unbound [3] | Serum stability after 24 h, remaining absorbance [4] | Serum stability after 24 h, remaining fluorescence [4] | IC50 [5] | PSMA affinity relative to EuK-Cy5(SO3)-MAS3 ([5]; ratio of affinities) | Staining of LNCaP cells (confocal) [6] | Hepatic clearance [8] | Tumour-to-blood ratio (T/B) ([8]; FIG. 5E) | ΦF (quantum yield) [1] | Brightness [1] | Tumour-to-fat ratio (T/F) [8] | Serum stability (comparison between tracers) ([4]; p<0.05) | Blood retention ([8]; 2 h post injection, FIG. 5B) | Nuclear (SPECT) imaging of the tumour [7] | Kidney accumulation ([8]; biodistribution 2 h post injection)
CC(=O)SCC(=O)NC(CO)C(=O)NC(CO)C(=O)NC(CO)C(=O)NCCCCCC(=O)NCCCCN1C(=CC=CC=CC2=[N+](CCCCCC(=O)NCCCCC(NC(=O)NC(CCC(=O)O)C(=O)O)C(=O)O)c3ccc(S(=O)(=O)[O-])cc3C2(C)C)C(C)(C)c2ccccc21 (stereo not shown) [EuK(SO3)-Cy5-MAS3] | 16 nm | 664 nm | 648 nm | -2.86 ± 0.05 | significantly higher than the PPB of EuK-Cy5-MAS3 | 0.15 | 97 ± 2 % remaining | 89 ± 6 % remaining | 19 nM and 19.2 nM | more than 9 fold | PSMA-related staining of LNCaP cells | 2.90±2.06 | 1713 |  |  |  |  |  | clear nuclear imaging of the tumour | 
CC(=O)SCC(=O)NC(CO)C(=O)NC(CO)C(=O)NC(CO)C(=O)NCCCCCC(=O)NCCCCN1C(=CC=CC=CC2=[N+](CCCCCC(=O)NCCCCC(NC(=O)NC(CCC(=O)O)C(=O)O)C(=O)O)c3ccccc3C2(C)C)C(C)(C)c2cc(S(=O)(=O)[O-])ccc21 (stereo not shown) [EuK-Cy5-(SO3)MAS3] | 16 nm | 664 nm | 648 nm | -2.7 ± 0.01 | significantly higher than the PPB of EuK-Cy5-MAS3 | 0.126 | 82 ± 7 % remaining | 85 ± 1 % remaining | 119 ± 117 nM |  |  |  |  | 7% | 10^‡ 10^3 M^−1 · cm^−1 | 2658±659 |  |  | clear nuclear imaging of the tumour | 
